Reference: patent US20240025862A1, “SUBSTITUTED N-PHENYLURACILS AND SALTS THEREOF, AND USE THEREOF AS HERBICIDAL ACTIVE SUBSTANCES” (Bayer Aktiengesellschaft, priority 2020, published 2024)

Key:
Type in all cases: in vivo
[1] = system: Alopecurus myosuroides (ALOMY); assay: Post-emergence herbicidal action, greenhouse pot test (also comparative test C); conditions: rated visually after about 3 weeks vs untreated controls, 100% = plants have died
Summary of the method: (§1)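 Visual rating against untreated controls, about 3 weeks after spraying, from 0% (like control) to 100% (plants dead). Weeds were treated at the one-leaf stage, 2–3 weeks after sowing in sandy loam, with aqueous WP/EC spray containing 0.5% additive at 600 l/ha. Doses were ≤20 g/ha, or ≤5 g/ha for comparative test C.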

[2] = system: Echinochloa crus-galli (ECHCG); assay: as above
Summary of the method: as §1

Setaria viridis (SETVI) = assay: as above
Summary of the method: as §1

[3] = system: Matricaria inodora (MATIN); assay: as above
Summary of the method: as §1

Oryza sativa (ORYSA) = assay: Post-emergence crop plant compatibility, greenhouse pot test (also comparative test C); conditions: for Post-emergence action against ORYSA (crop plant compatibility): vs untreated controls
Summary of the method: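 Visual damage versus untreated plants (0% = like control, 100% = plants died) was scored about 3 weeks after a post-emergence spray in greenhouse pots. Treatment: one-leaf stage, WP or EC in water at 600 l/ha with 0.5% additive; a/b/c mark different dosages on the same crop.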

Avena fatua (AVEFA) = assay: Post-emergence herbicidal action, greenhouse pot test; conditions: 20 g/ha, rated visually after about 3 weeks vs untreated controls, 100% = plants have died
Summary of the method: (§2)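 Activity was scored by eye about 3 weeks after treatment against untreated plants, where 100% means dead plants and 0% means no difference. Plants at the one-leaf stage received a foliar spray of WP or EC formulations in water plus 0.5% additive (600 l/ha, up to 20 g/ha). Plants were grown in sandy loam pots in a greenhouse for 2–3 weeks before spraying.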

[4] = system: Pharbitis purpurea (PHBPU); assay: as above
Summary of the method: as §2

[5] = system: Polygonum convolvulus (POLCO); assay: as above; conditions: dosage 20 g/ha
Summary of the method: as §2

Viola tricolor (VIOTR) = assay: as above
Summary of the method: as §2

[6] = system: Abutilon theophrasti (ABUTH); assay: as above; conditions: rated visually after about 3 weeks vs untreated controls, 100% = plants have died
Summary of the method: as §2

[7] = system: Amaranthus retroflexus (AMARE); assay: as above; conditions: rated visually after about 3 weeks vs untreated controls, 100% = plants have died
Summary of the method: as §2

Veronica persica (VERPE) = assay: as above
Summary of the method: as §2

Zea mays (ZEAMX) = assay: Post-emergence crop plant compatibility, greenhouse pot test; conditions: 1.25 g/ha, vs untreated controls
Summary of the method: (§3)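 Compatibility was scored as visual % effect against untreated controls about 3 weeks after spraying green plant parts at the one-leaf stage. Formulations (WP/EC) were applied in aqueous form with 0.5% additive, 600 l/ha, to greenhouse-grown pot plants.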

[8] = system: Triticum aestivum (TRZAS); assay: as above; conditions: vs untreated controls
Summary of the method: as §3

Compound: Cn1c(C(F)(F)F)cc(=O)n(-c2cc(Oc3ccccc3OCC(=O)OCCOC(F)(F)F)c([N+](=O)[O-])cc2F)c1=O [I.6-41]
- Post-emergence action at 5 g/ha against ALOMY in % ([1]; 5 g/ha): 80%
- Post-emergence action at 20 g/ha against ALOMY in % ([1]; 20 g/ha): 100%
- Post-emergence action against ECHCG in % ([2]; dosage 5 g/ha): 100%
- Post-emergence action against ECHCG in % ([2]; dosage 20 g/ha): 100%
- Post-emergence action against SETVI (Setaria viridis (SETVI); 20 g/ha): 100%
- Post-emergence action against SETVI in % (Setaria viridis (SETVI); dosage 1.25 g/ha): 100%
- Post-emergence action against SETVI in % (Setaria viridis (SETVI); dosage 5 g/ha): 100%
- Post-emergence action against MATIN in % ([3]; dosage 5 g/ha): 80%
- Post-emergence action against MATIN in % ([3]; dosage 20 g/ha): 100%
- Post-emergence action against ORYSA (crop plant compatibility) (Oryza sativa (ORYSA); 1.25 g/ha): 10%
- Post-emergence action against ORYSA (crop plant compatibility) (Oryza sativa (ORYSA); 5 g/ha): 10%
- Post-emergence action against ORYSA in % (Oryza sativa (ORYSA); 20 g/ha, crop plant compatibility): 20%
- Post-emergence action at 20 g/ha against AVEFA in % (Avena fatua (AVEFA)): 80%
- Post-emergence action against PHBPU in % ([4]; dosage 1.25 g/ha): 100%
- Post-emergence action against PHBPU in % ([4]; dosage 5 g/ha): 100%
- Post-emergence action against PHBPU in % ([4]; dosage 20 g/ha): 100%
- Post-emergence action against POLCO in % [5]: 100%
- Post-emergence action against VIOTR (Viola tricolor (VIOTR); 1.25 g/ha): 100%
- Post-emergence action against VIOTR (Viola tricolor (VIOTR); 5 g/ha): 100%
- Post-emergence action against VIOTR (Viola tricolor (VIOTR); 20 g/ha): 100%
- Post-emergence action at 1.25 g/ha against ABUTH in % ([6]; 1.25 g/ha): 100%
- Post-emergence action at 5 g/ha against ABUTH in % ([6]; 5 g/ha): 100%
- Post-emergence action at 20 g/ha against ABUTH in % ([6]; 20 g/ha): 100%
- Post-emergence action at 1.25 g/ha against AMARE in % ([7]; 1.25 g/ha): 100%
- Post-emergence action at 5 g/ha against AMARE in % ([7]; 5 g/ha): 100%
- Post-emergence action at 20 g/ha against AMARE in % ([7]; 20 g/ha): 100%
- Post-emergence action against VERPE (Veronica persica (VERPE); 5 g/ha): 100%
- Post-emergence action against VERPE (Veronica persica (VERPE); 20 g/ha): 100%
- Post-emergence action against ZEAMX (crop plant compatibility) (Zea mays (ZEAMX)): 20%
- Post-emergence action against TRZAS (crop plant compatibility) ([8]; 1.25 g/ha): 10%
- Post-emergence action against TRZAS (crop plant compatibility) ([8]; 5 g/ha): 20%
- Post-emergence action against TRZAS (crop plant compatibility) ([8]; 20 g/ha): 20%

Compound: COCC(C)OC(=O)COc1ccccc1Oc1cc(-n2c(=O)cc(C(F)(F)F)n(C)c2=O)c(F)cc1Cl (centres unmarked) [I.7-94, 1-Methoxypropan-2-yl (2-{2-chloro-4-fluoro-5-[3-methyl-2,6-dioxo-4-(trifluoromethyl)-3,6-dihydropyrimidin-1(2H)-yl]phenoxy}phenoxy)acetate]
- pest or weed control at 5 g/ha ([1]; Alopecurus myosuroides, 504 h, 5 g/ha, read-out: Post-emergence action at 5 g/ha against ALOMY in %): 80%
- pest or weed control at 20 g/ha ([1]; Alopecurus myosuroides, 504 h, 20 g/ha, read-out: Post-emergence action at 20 g/ha against ALOMY in %): 80%
- pest or weed control at 5 g/ha ([2]; Echinochloa crus-galli, 504 h, dosage 5 g/ha, read-out: Post-emergence action against ECHCG in %): 100%
- pest or weed control at 20 g/ha ([2]; Echinochloa crus-galli, 504 h, dosage 20 g/ha, read-out: Post-emergence action against ECHCG in %): 100%
- pest or weed control at 20 g/ha (Setaria viridis (SETVI); Setaria viridis, 504 h, 20 g/ha, read-out: Post-emergence action against SETVI): 100%
- pest or weed control at 1.25 g/ha (Setaria viridis (SETVI); Setaria viridis, 504 h, dosage 1.25 g/ha, read-out: Post-emergence action against SETVI in %): 100%
- pest or weed control at 5 g/ha (Setaria viridis (SETVI); Setaria viridis, 504 h, dosage 5 g/ha, read-out: Post-emergence action against SETVI in %): 100%
- pest or weed control at 1.25 g/ha ([3]; Tripleurospermum inodorum, 504 h, dosage 1.25 g/ha, read-out: Post-emergence action against MATIN in %): 80%
- pest or weed control at 5 g/ha ([3]; Tripleurospermum inodorum, 504 h, dosage 5 g/ha, read-out: Post-emergence action against MATIN in %): 80%
- pest or weed control at 20 g/ha ([3]; Tripleurospermum inodorum, 504 h, dosage 20 g/ha, read-out: Post-emergence action against MATIN in %): 100%
- Post-emergence action against ORYSA (crop plant compatibility) (Oryza sativa (ORYSA); 1.25 g/ha): 0%
- Post-emergence action against ORYSA (crop plant compatibility) (Oryza sativa (ORYSA); 5 g/ha): 20%
- pest or weed control at 20 g/ha (Avena fatua (AVEFA); Avena fatua, 504 h, read-out: Post-emergence action at 20 g/ha against AVEFA in %): 80%
- pest or weed control at 1.25 g/ha ([4]; Ipomoea purpurea, 504 h, dosage 1.25 g/ha, read-out: Post-emergence action against PHBPU in %): 100%
- pest or weed control at 5 g/ha ([4]; Ipomoea purpurea, 504 h, dosage 5 g/ha, read-out: Post-emergence action against PHBPU in %): 100%
- pest or weed control at 20 g/ha ([4]; Ipomoea purpurea, 504 h, dosage 20 g/ha, read-out: Post-emergence action against PHBPU in %): 100%
- pest or weed control at 20 g/ha ([5]; Fallopia convolvulus, 504 h, read-out: Post-emergence action against POLCO in %): 100%
- pest or weed control at 1.25 g/ha (Viola tricolor (VIOTR); Viola tricolor, 504 h, 1.25 g/ha, read-out: Post-emergence action against VIOTR): 80%
- pest or weed control at 5 g/ha (Viola tricolor (VIOTR); Viola tricolor, 504 h, 5 g/ha, read-out: Post-emergence action against VIOTR): 100%
- pest or weed control at 20 g/ha (Viola tricolor (VIOTR); Viola tricolor, 504 h, 20 g/ha, read-out: Post-emergence action against VIOTR): 100%
- pest or weed control at 1.25 g/ha ([6]; Abutilon theophrasti, 504 h, 1.25 g/ha, read-out: Post-emergence action at 1.25 g/ha against ABUTH in %): 100%
- pest or weed control at 5 g/ha ([6]; Abutilon theophrasti, 504 h, 5 g/ha, read-out: Post-emergence action at 5 g/ha against ABUTH in %): 100%
- pest or weed control at 20 g/ha ([6]; Abutilon theophrasti, 504 h, 20 g/ha, read-out: Post-emergence action at 20 g/ha against ABUTH in %): 100%
- pest or weed control at 1.25 g/ha ([7]; Amaranthus retroflexus, 504 h, 1.25 g/ha, read-out: Post-emergence action at 1.25 g/ha against AMARE in %): 100%
- pest or weed control at 5 g/ha ([7]; Amaranthus retroflexus, 504 h, 5 g/ha, read-out: Post-emergence action at 5 g/ha against AMARE in %): 100%
- pest or weed control at 20 g/ha ([7]; Amaranthus retroflexus, 504 h, 20 g/ha, read-out: Post-emergence action at 20 g/ha against AMARE in %): 100%
- pest or weed control at 1.25 g/ha (Veronica persica (VERPE); Veronica persica, 504 h, 1.25 g/ha, read-out: Post-emergence action against VERPE): 100%
- pest or weed control at 5 g/ha (Veronica persica (VERPE); Veronica persica, 504 h, 5 g/ha, read-out: Post-emergence action against VERPE): 100%
- pest or weed control at 20 g/ha (Veronica persica (VERPE); Veronica persica, 504 h, 20 g/ha, read-out: Post-emergence action against VERPE): 100%
- Post-emergence action against ZEAMX (crop plant compatibility) (Zea mays (ZEAMX)): 10%
- Post-emergence action against TRZAS (crop plant compatibility) ([8]; 1.25 g/ha): 20%

Compound: Cn1c(C(F)(F)F)cc(=O)n(-c2cc(Oc3ccccc3OCC(=O)OCc3cccnn3)c(Cl)cc2F)c1=O [I.7-291]
- Post-emergence action at 5 g/ha against ALOMY in % ([1]; 5 g/ha): 80%
- Post-emergence action at 20 g/ha against ALOMY in % ([1]; 20 g/ha): 100%
- Post-emergence action against ECHCG in % ([2]; dosage 5 g/ha): 100%
- Post-emergence action against ECHCG in % ([2]; dosage 20 g/ha): 100%
- Post-emergence action against SETVI (Setaria viridis (SETVI); 20 g/ha): 100%
- Post-emergence action against SETVI in % (Setaria viridis (SETVI); dosage 1.25 g/ha): 100%
- Post-emergence action against SETVI in % (Setaria viridis (SETVI); dosage 5 g/ha): 100%
- Post-emergence action against MATIN in % ([3]; dosage 5 g/ha): 100%
- Post-emergence action against MATIN in % ([3]; dosage 20 g/ha): 100%
- Post-emergence action against ORYSA (crop plant compatibility) (Oryza sativa (ORYSA); 1.25 g/ha): 20%
- Post-emergence action at 20 g/ha against AVEFA in % (Avena fatua (AVEFA)): 100%
- Post-emergence action against PHBPU in % ([4]; dosage 1.25 g/ha): 100%
- Post-emergence action against PHBPU in % ([4]; dosage 5 g/ha): 100%
- Post-emergence action against PHBPU in % ([4]; dosage 20 g/ha): 100%
- Post-emergence action against POLCO in % [5]: 100%
- Post-emergence action against VIOTR (Viola tricolor (VIOTR); 1.25 g/ha): 100%
- Post-emergence action against VIOTR (Viola tricolor (VIOTR); 5 g/ha): 100%
- Post-emergence action against VIOTR (Viola tricolor (VIOTR); 20 g/ha): 100%
- Post-emergence action at 1.25 g/ha against ABUTH in % ([6]; 1.25 g/ha): 100%
- Post-emergence action at 5 g/ha against ABUTH in % ([6]; 5 g/ha): 100%
- Post-emergence action at 20 g/ha against ABUTH in % ([6]; 20 g/ha): 100%
- Post-emergence action at 1.25 g/ha against AMARE in % ([7]; 1.25 g/ha): 100%
- Post-emergence action at 5 g/ha against AMARE in % ([7]; 5 g/ha): 100%
- Post-emergence action at 20 g/ha against AMARE in % ([7]; 20 g/ha): 100%
- Post-emergence action against VERPE (Veronica persica (VERPE); 5 g/ha): 100%
- Post-emergence action against VERPE (Veronica persica (VERPE); 20 g/ha): 100%
- Post-emergence action against ZEAMX (crop plant compatibility) (Zea mays (ZEAMX)): 10%
- Post-emergence action against TRZAS (crop plant compatibility) ([8]; 1.25 g/ha): 0%
- Post-emergence action against TRZAS (crop plant compatibility) ([8]; 5 g/ha): 0%
